Measurements: patent EP3246028A1, “QUINOLINE COMPOUNDS FOR INCREASING INSULINE RELEASE” (Max-Planck-Gesellschaft zur Förderung der Wissenschaften …, priority 2016, dated 2017)
“Also recorded” adds a separate entry of the source.

Columns and labels:
[1] = test system: RIN-5AH insulinoma beta cell line; assay: Insulin secretion (insulin ELISA of supernatants); format: cell-based; settings: for activation at 5 µM: RIN-5AH cells, treated in medium for 2 hours, read-out: AV_INSULIN (percent increase in insulin secretion over a DMSO control)
Protocol: Culture medium and supplements were purchased from Life Technologies. The RIN-5AH insulinoma beta cell line was cultured in RPMI 1640 supplemented with 10% FBS, 2 mM glutamine. All culture media contained 1x penicillin-streptomycin. Cells were grown on 15 cm culture plates at 37°C under 5% CO2 in high humidity atmosphere.
To determine the insulin level from the supernatants insulin ELISA kits from Millipore or Mercodia were used. RIN-5AH cells were seeded in 96 well or 12 well plates and grown overnight. RIN-5AH cells never reached more than 80% confluency before treatment. Cells were washed once with PBS before treatment. Cells were treated in medium for 2 hours and with 5 µM of insulin secretagogue according to the present invention, if not otherwise indicated. After treatment 100ul of supernatant was taken. Samples were assayed immediately or stored at -20°C until measurement. Dilutions were made if necessary and ELISA was subsequently performed according to the user's manual. Insulin secretion was normalized to cell number by MTT assay or to total protein amount by BCA assay (ThermoFisher Scientific, 23225). Plates were read on BioTrek Elx800 absorbance reader at 450 nm.
RIN-5AH beta cells were treated with 5 µM compound 12 or 50 µM quinidine or chloroquine according to the above described protocol (Example 1).

RIN-5AH cells = assay: Calcium influx by FACS analysis (Fluo-4 AM fluorescence); format: cell-based; settings: extracellular Ca2+ present, compound 12 at 5 µM, Figure 2
Protocol: Calcium influx was measured by FACS analysis, similar to protocols previously described (Brewis, I. A., journal of andrology 21, 238-249, doi:10.1002/j.1939-4640.2000.tb02101.x (2000); Vines, A., Cytometry Part A 77A, 1091-1097, doi:10.1002/cyto.a.20974 (2010); Schepers, E., Journal of Immunological Methods 348, 74-82, doi:http://dx.doi.org/10.1016/j.jim.2009.07.002 (2009)).
RIN-5AH cells (30,000 cells per well) were plated in 12 well plates and incubated overnight at 37°C and 5% CO2. Cells were stained with Fluo-4 AM (molecular probes, F14201) by using a 3µM stock solution prepared in HBSS with Ca2+ and Mg2+ (HBSS++) and with addition of a final amount of 0.02% Pluronic-F127 (molecular probes, P6867). Cells were incubated with 600ul of the dye/well for 1h at 37°C, in 5% CO2. They were washed 2x with Ca2+ and Mg2+ free HBSS (HBSS--) (Gibco, 14170) before moving to the next step of the protocol (see below).
Cells were trypsinized for three minutes at 37°C and 5% CO2. The cell suspension was then diluted by adding 1ml HBSS-- / well and centrifuged for 3 minutes at 1200 RPM. Cells were resuspended in 1 mL of HBSS++ or HBSS-- before starting the measurement. Base fluorescent signal was recorded for 30 seconds followed by treatment with the various compounds by quickly adding the compounds to the FACS analysis tubes, while acquisition was not interrupted (gaps). […] Samples were measured continuously for the desired time and all measurements were completed within 40 minutes. Unstained cells and stained cells in external buffer without Ca2+ and Mg2+ (HBSS--) were used as negative controls for the treatments. Data were acquired on BD-FACSCalibur and the visualizations were prepared by FlowJo software.

SMILES: COc1cc2c(Nc3cc(OC)c(Cl)cc3Cl)cc(C#N)nc2cc1F [Compound 75, 4-(2,4-dichloro-5-methoxy-anilino)-7-fluoro-6-methoxy-quinoline-2-carbonitrile]
- activation at 5 µM [1]: 116%

SMILES: CN(C)Cc1cc(Nc2cc(C#N)nc3cc(F)ccc23)c(Cl)cc1Cl [Compound 23, 4-[2,4-dichloro-5-(dimethylaminomethyl)anilino]-7-fluoro-quinoline-2-carbonitrile]
- activation at 5 µM [1]: 57%

SMILES: N#Cc1cc(-c2cccc(NC(=O)c3cccc(C(F)(F)F)c3)c2)c2ccc(F)cc2n1 [Compound 11, N-[3-(2-cyano-7-fluoro-4-quinolyl)phenyl]-3-(trifluoromethyl)benzamide]
- activation at 5 µM [1]: 86%

SMILES: COc1cc2c(Nc3c(Cl)cccc3Cl)cc(C#N)nc2cc1F [Compound 21, 4-(2,6-dichloroanilino)-7-fluoro-6-methoxy-quinoline-2-carbonitrile]
- activation at 5 µM [1]: 65%

SMILES: COc1ccc2nc(C#N)cc(Nc3cc(OC)c(Cl)cc3Cl)c2c1 [Compound 15, 4-(2,4-dichloro-5-methoxy-anilino)-6-methoxy-quinoline-2-carbonitrile]
- activation at 5 µM [1]: 78%

SMILES: N#Cc1cc(Nc2ccc(Cl)cc2C(F)(F)F)c2cc(F)ccc2n1 [Compound 5, 4-[4-chloro-2-(trifluoromethyl)anilino]-6-fluoro-quinoline-2-carbonitrile]
- divalent calcium cation influx (Fluo-4 AM fluorescence by FACS) (RIN-5AH cells): induced divalent calcium cation influx
- activation at 5 µM [1]: 96%

SMILES: COc1cc(Nc2cc(C#N)nc3c(Br)cccc23)c(Cl)cc1Cl [Compound 3, 8-bromo-4-(2,4-dichloro-5-methoxy-anilino)quinoline-2-carbonitrile]
- activation at 5 µM [1]: 116%

SMILES: COc1c(F)ccc2c(Nc3ccc(C)c(C)c3)cc(C#N)nc12 [Compound 16, 4-(3,4-dimethylanilino)-7-fluoro-8-methoxy-quinoline-2-carbonitrile]
- activation at 5 µM [1]: 78%

SMILES: N#Cc1cc(-c2cccc(N)c2)c2ccc(F)cc2n1 [Compound 1, 4-(3-aminophenyl)-7-fluoro-quinoline-2-carbonitrile]
- activation at 5 µM [1]: 151%

SMILES: COc1cc2nccc(-c3cccc(Nc4cc(C(N)=O)nc5c(F)cccc45)c3)c2cc1OC [Compound 27, 4-[3-(6,7-dimethoxy-4-quinolyl)anilino]-8-fluoro-quinoline-2-carboxamide]
- activation at 5 µM [1]: 46%

SMILES: COc1cc2nccc(-c3cccc(Nc4cc(C#N)nc5c(F)cccc45)c3)c2cc1OC [Compound 24, 4-[3-(6,7-dimethoxy-4-quinolyl)anilino]-8-fluoro-quinoline-2-carbonitrile]
- activation at 5 µM [1]: 57%

SMILES: COc1cc(Nc2cc(C#N)nc3c(F)cccc23)c(Cl)cc1Cl [Compound 19, 4-(2,4-dichloro-5-methoxy-anilino)-8-fluoro-quinoline-2-carbonitrile]
- activation at 5 µM [1]: 70%

SMILES: COc1cc2c(Nc3ccc(Cl)cc3Cl)c(C#N)cnc2cc1OCCCN [Compound 20, 7-(3-aminopropoxy)-4-(2,4-dichloroanilino)-6-methoxy-quinoline-3-carbonitrile]
- activation at 5 µM [1]: 67%

SMILES: COc1cc2c(Oc3ccc(NS(=O)(=O)c4cccc(-c5ccccc5)c4)cc3F)ccnc2cc1OCCCN [Compound 9, N-[4-[[7-(3-aminopropoxy)-6-methoxy-4-quinolyl]oxy]-3-fluoro-phenyl]-3-phenyl-benzenesulfonamide]
- activation at 5 µM [1]: 90%

SMILES: COc1cc(Nc2cc(C#N)nc3cc(F)c(OCCCN4C(=O)c5ccccc5C4=O)cc23)c(Cl)cc1Cl [Compound 63, 4-(2,4-dichloro-5-methoxy-anilino)-6-[3-(1,3-dioxoisoindolin-2-yl)propoxy]-7-fluoro-quinoline-2-carbonitrile]
- divalent calcium cation influx (Fluo-4 AM fluorescence by FACS) (RIN-5AH cells): did not show any increase
- effect on insulin secretion ([1]; negative control quinoline compounds): didn't show any effect

SMILES: CN(C)C(=O)c1cc(Nc2cc(C#N)nc3c(F)cccc23)c(Cl)cc1Cl [Compound 25, 2,4-dichloro-5-[(2-cyano-8-fluoro-4-quinolyl)amino]-N,N-dimethyl-benzamide]
- activation at 5 µM [1]: 48%

SMILES: COc1cc2c(Nc3ccc(Cl)cc3C(F)(F)F)cc(C#N)nc2cc1F [Compound 13, 4-[4-chloro-2-(trifluoromethyl)anilino]-7-fluoro-6-methoxy-quinoline-2-carbonitrile]
- divalent calcium cation influx (Fluo-4 AM fluorescence by FACS) (RIN-5AH cells): induced divalent calcium cation influx; also recorded: induced Ca2+ influx
- activation at 5 µM [1]: 83%

SMILES: COc1cc(Nc2c(C#N)cnc3cc(OCCCN)c(OC)cc23)c(Cl)cc1Cl [Compound 17, 7-(3-aminopropoxy)-4-(2,4-dichloro-5-methoxy-anilino)-6-methoxy-quinoline-3-carbonitrile]
- activation at 5 µM [1]: 74%

SMILES: COc1cc2c(Oc3ccc(NS(=O)(=O)c4cccc(-c5ccccc5)c4)cc3F)ccnc2cc1OCCCN1CCOCC1 [Compound 26, N-[3-fluoro-4-[[6-methoxy-7-(3-morpholinopropoxy)-4-quinolyl]oxy]phenyl]-3-phenyl-benzenesulfonamide]
- activation at 5 µM [1]: 47%

SMILES: N#Cc1cc(-c2cccc(NS(=O)(=O)c3c(F)cccc3F)c2)c2ccc(F)cc2n1 [Compound 6, N-[3-(2-cyano-7-fluoro-4-quinolyl)phenyl]-2,6-difluoro-benzenesulfonamide]
- activation at 5 µM [1]: 94%

SMILES: CN(C)C(=O)c1cc(Nc2cc(C#N)nc3cc(F)ccc23)c(Cl)cc1Cl [Compound 28, 2,4-dichloro-5-[(2-cyano-7-fluoro-4-quinolyl)amino]-N,N-dimethyl-benzamide]
- activation at 5 µM [1]: 45%

SMILES: N#Cc1cc(Nc2ccc(Cl)cc2C(F)(F)F)c2cccc(F)c2n1 [Compound 7, 4-[4-chloro-2-(trifluoromethyl)anilino]-8-fluoro-quinoline-2-carbonitrile]
- divalent calcium cation influx (Fluo-4 AM fluorescence by FACS) (RIN-5AH cells): induced divalent calcium cation influx; also recorded: induced Ca2+ influx
- activation at 5 µM [1]: 93%

SMILES: COc1cc(Nc2cc(C#N)nc3ccc(F)cc23)c(Cl)cc1Cl [Compound 10, 4-(2,4-dichloro-5-methoxy-anilino)-6-fluoro-quinoline-2-carbonitrile]
- activation at 5 µM [1]: 89%

SMILES: COc1cc(Nc2cc(C#N)nc3c(C(F)(F)F)cccc23)c(Cl)cc1Cl [Compound 22, 4-(2,4-dichloro-5-methoxy-anilino)-8-(trifluoromethyl)quinoline-2-carbonitrile]
- activation at 5 µM [1]: 58%

SMILES: N#Cc1cc(Nc2ccc(F)c(Cl)c2)c2cc(Cl)cc(Cl)c2n1 [Compound 14, 6,8-dichloro-4-(3-chloro-4-fluoro-anilino)quinoline-2-carbonitrile]
- activation at 5 µM [1]: 78%

SMILES: CN(C)C(=O)c1cc(Nc2cc(C#N)nc3c(Br)cccc23)c(Cl)cc1Cl [Compound 2, 5-[(8-bromo-2-cyano-4-quinolyl)amino]-2,4-dichloro-N,N-dimethyl-benzamide]
- activation at 5 µM [1]: 125%

SMILES: N#Cc1cc(Nc2c(Cl)cccc2Cl)c2cccc(F)c2n1 [Compound 18, 4-(2,6-dichloroanilino)-8-fluoro-quinoline-2-carbonitrile]
- divalent calcium cation influx (Fluo-4 AM fluorescence by FACS) (RIN-5AH cells): induced divalent calcium cation influx; also recorded: induced Ca2+ influx
- activation at 5 µM [1]: 73%

SMILES: COc1c(F)ccc2c(Nc3c(Cl)cccc3Cl)cc(C#N)nc12 [Compound 8, 4-(2,6-dichloroanilino)-7-fluoro-8-methoxy-quinoline-2-carbonitrile]
- divalent calcium cation influx (Fluo-4 AM fluorescence by FACS) (RIN-5AH cells): induced divalent calcium cation influx; also recorded: induced Ca2+ influx
- activation at 5 µM [1]: 93%

SMILES: N#Cc1cc(Nc2c(Cl)cccc2Cl)c2cc(F)ccc2n1 [Compound 29, 4-(2,6-dichloroanilino)-6-fluoro-quinoline-2-carbonitrile]
- activation at 5 µM [1]: 41%

SMILES: COc1c(F)ccc2c(Nc3ccc(Cl)cc3C(F)(F)F)cc(C#N)nc12 [Compound 4, 4-[4-chloro-2-(trifluoromethyl)anilino]-7-fluoro-8-methoxy-quinoline-2-carbonitrile]
- divalent calcium cation influx (Fluo-4 AM fluorescence by FACS) (RIN-5AH cells): induced divalent calcium cation influx
- activation at 5 µM [1]: 101%
